Reference: paper PMC6264767 (Molecules, 2011)
Read-outs that look alike come from different tables or passages of the source.

Experiments:
HSV-1 (KOS) = assay: microbe, parasite or virus in culture; assay type: cell-based, herpes simplex virus type 1; conditions: Human alphaherpesvirus 1, HEL
HEL cell cultures = conditions: for MCC (minimum cytotoxic concentration): human
HSV-1 TK^− KOS ACV^r = assay: microbe, parasite or virus in culture; assay type: cell-based, herpes simplex virus-1; conditions: Human alphaherpesvirus 1, HEL
Vaccinia virus = assay: microbe, parasite or virus in culture; assay type: cell-based; conditions: Orthopoxvirus vaccinia, HEL
[1] = tested on: Vesicular stomatitis virus; assay: microbe, parasite or virus in culture; assay type: cell-based; conditions: HEL, read-out: EC50 Vesicular stomatitis virus
HSV-2 (G) = assay: microbe, parasite or virus in culture; assay type: cell-based, herpes simplex virus type 2; conditions: Human alphaherpesvirus 2, HEL
Feline Herpes Virus = assay: organism not typed; assay type: cell-based; conditions: CRFK, read-out: EC50 Feline Herpes Virus
[2] = tested on: Feline Corona Virus (FIPV); assay: microbe, parasite or virus in culture; assay type: cell-based; conditions: Alphacoronavirus 1, CRFK, read-out: EC50 Feline Corona Virus (FIPV)
in vitro = conditions: cat
[3] = read-out: EC50 HSV-1 TK^− KOS ACV^r
[4] = read-out: inhibitory activity against HSV-1 (KOS), one range given for several viruses
[5] = read-out: inhibitory activity against HSV-1 TK^− KOS (ACV^r), one range given for several viruses
[6] = read-out: inhibitory activity against HSV-2 (G), one range given for several viruses

Row | Compound | EC50 (HSV-1 (KOS); read-out: EC50 HSV-1 (KOS)) | MCC (minimum cytotoxic concentration) (HEL cell cultures) | EC50 (HSV-1 TK^− KOS ACV^r; [3]) | EC50 (Vaccinia virus; read-out: EC50 Vaccinia virus) | melting point | EC50 [1] | EC50 (HSV-2 (G); read-out: EC50 HSV-2 (G)) | EC50 (HSV-1 (KOS); [4]) | cytostatic activity at 100 µM (HEL cell cultures; 100 µM) | EC50 (HSV-1 TK^− KOS ACV^r; [5]) | EC50 (HSV-2 (G); [6]) | EC50 (Feline Herpes Virus) | EC50 [2] | CC50 (in vitro) | EC50 (Vaccinia virus; read-out: inhibitory activity against vaccinia virus, one range given for several viruses)
1 | O=c1oc2ccccc2c(O)c1C(c1ccc(C(F)(F)F)cc1)c1c(O)c2ccccc2oc1=O [Compound 7, 3,3′-(4-Trifluoromethylbenzylidene)-bis-[4-hydroxycoumarin]] | > 4 µM | 20 µM | > 4 µM | > 4 µM | 271.3 °C | > 4 µM | > 4 µM | – | – | – | – | – | – | – | –
2 | O=c1oc2ccccc2c(O)c1C1c2cc([N+](=O)[O-])ccc2Oc2c1c(=O)oc1ccccc21 (stereo not drawn) [Compound 19, 3-[6-Oxo-(1H)-18-nitrobenzopyrano[4,3-b]benzopyran-7-yl]-4-hydroxycoumarin] | 50 µM | >100 µM | 50 µM | > 100 µM | 315.7 °C | > 100 µM | 45 µM | 45 to 50 µM | no cytotostatic activity | 45 to 50 µM | 45 to 50 µM | – | – | – | –
3 | O=c1oc2ccccc2c(O)c1C(c1ccccc1[N+](=O)[O-])c1c(O)c2ccccc2oc1=O [Compound 9, 3,3’-(2-Nitrobenzylidene)-bis-[4-hydroxycoumarin]] | – | – | – | – | 202 °C | – | – | – | – | – | – | 14 µM | 8.3 µM | 34 µM | –
4 | COc1cc(OC)c2c(c1)Oc1c(c(=O)oc3ccccc13)C2c1c(O)c2ccccc2oc1=O (stereo not drawn) [Compound 20, 3-[6-oxo-(1H)-15,17-dimethoxybenzopyrano[4,3-b]benzopyran-7-yl]-4-hydroxycoumarin] | > 20 µM | 100 µM | > 20 µM | > 20 µM | 287.9 °C | > 20 µM | > 20 µM | – | – | – | – | 7.1 µM | 6.4 µM | 27 µM | –
5 | O=c1oc2ccccc2c(O)c1C(c1ccc(Br)cc1)c1c(O)c2ccccc2oc1=O | – | – | – | – | 267.2 °C | – | – | – | – | – | – | – | – | – | –
6 | COc1ccc(OC)c(C(c2c(O)c3ccccc3oc2=O)c2c(O)c3ccccc3oc2=O)c1 [Compound 14, 3,3′-(2,5-Dimethoxybenzylidene)-bis-[4-hydroxycoumarin]] | > 100 µM | >100 µM | > 100 µM | > 100 µM | 181.6 °C | > 100 µM | > 100 µM | – | – | – | – | – | – | – | –
7 | O=c1oc2ccccc2c(O)c1C(c1ccc(F)cc1)c1c(O)c2ccccc2oc1=O [Compound 6, 3,3′-(4-Fluorobenzylidene)-bis-[4-hydroxycoumarin]] | – | – | – | – | 214.5 °C | – | – | – | – | – | – | 8.1 µM | 7.7 µM | 39 µM | –
8 | Nc1ccn(C[C@@H](CO)OCP(=O)(O)O)c(=O)n1 [Cidofovir, (S)-1-[3-hydroxy-2-(phosphonyl-methoxy)propyl]cytosine, reference compound] | 0.9 µM | >250 µM | 1.5 µM | 7.9 µM | – | > 250 µM | 1.5 µM | – | – | – | – | – | – | – | –
9 | COc1ccccc1C(c1c(O)c2ccccc2oc1=O)c1c(O)c2ccccc2oc1=O [Compound 5, 3,3′-(2-Methoxybenzylidene)bis[4-hydroxycoumarin]] | – | – | – | – | – | – | – | – | – | – | – | 5 µM | 7.5 µM | 36 µM | –
10 | CSc1ccc(C(c2c(O)c3ccccc3oc2=O)c2c(O)c3ccccc3oc2=O)cc1 [Compound 11, 3,3′-(4-Methyltiobenzylidene)-bis-[4-hydroxycoumarin]] | > 20 µM | 100 µM | > 20 µM | > 20 µM | 258.7 °C | > 20 µM | > 20 µM | – | – | – | – | – | – | – | –
11 | O=c1oc2ccccc2c(O)c1C(c1ccc(Cl)cc1)c1c(O)c2ccccc2oc1=O [Compound 4, 3,3’-(4-Chlorobenzylidene)-bis-[4-hydroxycoumarin]] | – | – | – | – | – | – | – | – | – | – | – | 7.6 µM | 9.1 µM | 45 µM | –
12 | O=c1oc2ccccc2c(O)c1C(c1cccc(Br)c1)c1c(O)c2ccccc2oc1=O [Compound 3, 3,3′-(3-Bromobenzylidene)-bis-[4-hydroxycoumarin]] | 9 µM | – | 9 µM | 11 µM | 287 °C | > 20 µM | 9 µM | 9 to 12 µM | – | 9 to 12 µM | 9 to 12 µM | – | – | – | 9 to 12 µM
13 | COc1cc(C(c2c(O)c3ccccc3oc2=O)c2c(O)c3ccccc3oc2=O)cc([N+](=O)[O-])c1O [Compound 15, 3,3′-(4-Hydroxy-3-methoxy-5-nitrobenzylidene)-bis-[4-hydroxycoumarin]] | > 100 µM | >100 µM | > 100 µM | > 100 µM | 199.6 °C | > 100 µM | > 100 µM | – | – | – | – | – | – | – | –
14 | O=c1oc2ccccc2c(O)c1C(c1ccccc1)c1c(O)c2ccccc2oc1=O [Compound 1, 3,3′-(Benzilidene)-bis-[4-hydroxycoumarin]] | – | – | – | – | – | – | – | – | – | – | – | 9.1 µM | 7.5 µM | 43 µM | –
15 | Nc1nc2c(ncn2COCCO)c(=O)[nH]1 [Acyclovir, reference compound] | 0.3 µM | >250 µM | 20 µM | > 250 µM | – | > 250 µM | 0.35 µM | – | – | – | – | – | – | – | –
16 | O=c1oc2ccccc2c(O)c1C(c1ccc(O)c(O)c1)c1c(O)c2ccccc2oc1=O [Compound 13, 3,3′-(3,4-Dihydroxybenzylidene)-bis-[4-hydroxycoumarin]] | > 20 µM | 100 µM | > 20 µM | > 20 µM | 227.5 °C | > 20 µM | > 20 µM | – | – | – | – | – | – | – | –
17 | O=c1[nH]c(=O)n([C@H]2C[C@H](O)[C@@H](CO)O2)cc1/C=C/Br [Brivudin, (E)-5-(2-bromovinyl)-2’-deoxyuridine, reference compound] | 0.06 µM | >250 µM | 50 µM | 3.2 µM | – | > 250 µM | 182 µM | – | – | – | – | – | – | – | –
18 | Nc1nc(O)c2ncn(COC(CO)CO)c2n1 [Ganciclovir, 9-[(1,3-dihydroxy-2-propoxy)methyl]guanine, reference compound] | 0.025 µM | >100 µM | 0.1 µM | > 100 µM | – | > 100 µM | 0.03 µM | – | – | – | – | 4.9 µM | > 100 µM | > 100 µM | –
19 | O=c1oc2ccccc2c(O)c1C(c1ccc([N+](=O)[O-])cc1)c1c(O)c2ccccc2oc1=O [Compound 8, 3,3′-(4-Nitrobenzylidene)-bis-[4-hydroxycoumarin]] | > 20 µM | 100 µM | > 20 µM | > 20 µM | – | > 20 µM | > 20 µM | – | – | – | – | 6.9 µM | 8.5 µM | 41 µM | –
